“And” between values parts separate entries of the source, which are not always exact repeats. Identical values can stand only once. Marks after values point to notes of the source that are not given here.
Tests used:
[1] = Metabolic stability in human microsomes; assay type: in vitro ADME; conditions: for Metabolic stability in human microsomes: 37 °C, 0.5 mg/mL protein, 1 μM compound, 1 mM NADPH; for Comment on microsome assay: Table S3
[2] = Solubility, screen method, phosphate buffer pH 7.4, 1% DMSO; assay type: physicochemical; conditions: phosphate buffer with 1% DMSO; 100 mM phosphate buffer pH 7.4, 1% DMSO; assay range 0.1 to 100 μM
[3] = Co-factor experiment: microsome suspension with and without NADPH; assay type: in vitro ADME, human; conditions: for Co-factor experiment: degradation with and without addition of NADPH compared; for microsomal CLint: human, human microsome suspension, both with and without the addition of NADPH, read-out: intrinsic clearance
Procedure: Therefore, additional experiments comparing stability with and without the addition of NADPH cofactor and a very short incubation period were performed (Tables S4 and S5). […] Due to the rapid observed degradation in microsomes, we decided to investigate the stability of five compounds in human plasma, aiming for a broad range of stabilities (Table 2, Table S6). It should be noted that esterase-labile compounds are notoriously difficult to study in microsomal stability studies.[36]
Table S3 Evaluation of metabolic stability in human microsomes
No. Metabolic stability Comment
4k <10/<10 Low retention in chromatography
8 <10/<10 Low retention in chromatography.
Table S4 Results from the modified microsome assay where degradation with and without the addition of NADPH was compared […]
4d Very low peak area for the first time point,
4e Very low peak area for the first time point,
4f Very low peak area for the first time point,
5 Very low peak area for the first time point,
8 No degradation without co -factor […]
metabolism by the microsomes (consisting mainly of cytochrome P450 enzymes) or if it was due to other factors, the compounds (with the exception of 4k) were incubated in the microsome suspension both with and without the addition of NADPH. Samples […]
were taken at three timepoints, and the degradation was compared to determine if it was dependent on NADPH. Compound 4k […]
without the addition of NADPH. […]
microsomes that need to be activated by a co -factor.
Table S5 Percent of peak area found in microsome suspension 15 seconds after the addition of NADPH in comparison with the same amount dissolved in H2O/EtOH
No. Area at 0.25 min. in Area in solution % found in microsomes/NADPH (125 nM) microsome
Comparison with compounds in solution. A comparison was made between the peak area of the compounds in solution with that obtained in the microsome suspension directly after the addition of NADPH (about 0.25 minutes) (Table S5). Before the addition of NADPH, the compounds are equilibrated in the microsome suspension for approximately five minutes. All compounds were prepared in solution by diluting a portion of the DMSO solutions with H2O/EtOH (75:25) to 125 nM (the final concentration of compounds for analysis in the microsome assay).
For the compounds where no results from the microsome assay could be reported due to low peak area (4d, 4e, 4f & 5), less than one percent of the expected peak area as compared with the area in solution was detected. […]
degrade rapidly before the addition of the co-factor after five minutes in incubation. For compounds 4g, 4h, 4i & 4j, which were […]
higher relative peak areas were found. […]
without NADPH was only found at 15% of the area seen in solution in the microsome suspension.

[4] = Stability in simulated stomach acid (0.10 M HCl); conditions: 0.10 M HCl (simulated stomach acid)
porcine liver esterase = test: Stability in FaSSIF supplemented with esterase; conditions: for % prodrug remaining, measured after 1 min: after 1 min at 20 IU/mL; for predicted half-life: at 270 IU/mL; for predicted abs.: calculated remaining prodrug available for GI absorption, predicted level after 5 min at 270 IU/mL (% remaining prodrug); for half-life at 0.292 mM: pig, FaSSIF supplemented with porcine liver esterase (20 IU/mL); for % prodrug remaining, no esterase 30 min: after 30 min with no esterase

Row | SMILES | Metabolic stability in human microsomes [1] | solubility [2] [µM] | Co-factor experiment [3] | half-life at 5 mM [4] [h] | % prodrug remaining, measured after 1 min (porcine liver esterase) [%] | predicted half-life (porcine liver esterase) [min] | predicted abs. (porcine liver esterase) | half-life at 0.292 mM (porcine liver esterase) [min] | Comment on microsome assay [1] | microsomal CLint [3] [µL/min/mg] | % prodrug remaining, no esterase 30 min (porcine liver esterase) [%]
1 | CN(C)CCc1c[nH]c2cccc(OCc3ccccc3)c12 [Compound 3, 4-Benzyloxy-N,N-dimethyltryptamine] | 43 μL/min/mg protein and 44 μL/min/mg protein | > 90 | No degradation without co-factor | > 167 | – | – | – | – | – | – | –
2 | CC(=O)Oc1cccc2[nH]cc(CCN(C)C)c12.O=C(O)/C=C/C(=O)O [Compound 4a, 4-acetoxy-N,N-dimethyltryptamine] | >200^a μL/min/mg protein and >200 μL/min/mg protein | 77 | Degradation without co-factor | > 167 | 47 | 0.07 | 6.2 × 10^–21 | 0.91 ± 0.1 | Rapid degradation | > 200 | –
3 | CN(C)CCc1c[nH]c2cccc(OC(=O)C3CC3)c12.O=C(O)/C=C/C(=O)O [Compound 4g] | >200^a μL/min/mg protein and >200 μL/min/mg protein | > 90 | Degradation without co-factor | > 167 | 57 | 0.09 | 1.9 × 10^–15 | 1.22 ± 0.04 | Rapid degradation | > 200 | 100
4 | CCOC(=O)Oc1cccc2[nH]cc(CCN(C)C)c12.O=C(O)/C=C/C(=O)O [Compound 4i] | >200^a μL/min/mg protein and >200 μL/min/mg protein | 88 | Degradation without co-factor | > 167 | 28 | 0.04 | 2.6 × 10^–35 | 0.56 ± 0.12 | Rapid degradation | > 200 | 100
5 | CN(C)CCc1c[nH]c2cccc(OP(=O)(O)O)c12 [Compound 8, 4-phosphoryloxy-N,N-dimethyltryptamine, reference compound] | <10/<10^b μL/min/mg protein and <10 μL/min/mg protein | – | No degradation without co-factor | > 167 | – | – | – | – | – | – | –

Source: publication PMC11997985, “Synthesis and In Vitro Profiling of Psilocin Derivatives: Improved Stability and Synthetic Properties” (Journal of Medicinal Chemistry, 2025)
